Measurements as given in ChEMBL document CHEMBL1134714, “Spirocyclic nonpeptide glycoprotein IIb-IIIa antagonists. Part 1: design of potent and specific 3,9-diazaspiro[5.5]undecanes” (Bioorg Med Chem Lett, 2001).

How the values were obtained:
Integrin alpha-V/beta-3 = Integrin alpha-V/beta-3 (Homo sapiens, UniProt P05106+P06756); assay: Inhibitory concentration against alphaV-beta3 integrin; assay type: protein-complex assay
Homo sapiens = organism: Homo sapiens; assay: Inhibition of aggregation of ADP-stimulated human platelets; assay type: functional
[1] = biological target: Integrin alpha-IIb/beta-3 (Homo sapiens, UniProt P05106+P08514); assay: Inhibition of binding of fibrinogen to purified human GPIIb-IIIa in ELISA; assay type: protein-complex assay
Chain of Integrin alpha-IIb/beta-3 (P05106 27-788 limits assumed): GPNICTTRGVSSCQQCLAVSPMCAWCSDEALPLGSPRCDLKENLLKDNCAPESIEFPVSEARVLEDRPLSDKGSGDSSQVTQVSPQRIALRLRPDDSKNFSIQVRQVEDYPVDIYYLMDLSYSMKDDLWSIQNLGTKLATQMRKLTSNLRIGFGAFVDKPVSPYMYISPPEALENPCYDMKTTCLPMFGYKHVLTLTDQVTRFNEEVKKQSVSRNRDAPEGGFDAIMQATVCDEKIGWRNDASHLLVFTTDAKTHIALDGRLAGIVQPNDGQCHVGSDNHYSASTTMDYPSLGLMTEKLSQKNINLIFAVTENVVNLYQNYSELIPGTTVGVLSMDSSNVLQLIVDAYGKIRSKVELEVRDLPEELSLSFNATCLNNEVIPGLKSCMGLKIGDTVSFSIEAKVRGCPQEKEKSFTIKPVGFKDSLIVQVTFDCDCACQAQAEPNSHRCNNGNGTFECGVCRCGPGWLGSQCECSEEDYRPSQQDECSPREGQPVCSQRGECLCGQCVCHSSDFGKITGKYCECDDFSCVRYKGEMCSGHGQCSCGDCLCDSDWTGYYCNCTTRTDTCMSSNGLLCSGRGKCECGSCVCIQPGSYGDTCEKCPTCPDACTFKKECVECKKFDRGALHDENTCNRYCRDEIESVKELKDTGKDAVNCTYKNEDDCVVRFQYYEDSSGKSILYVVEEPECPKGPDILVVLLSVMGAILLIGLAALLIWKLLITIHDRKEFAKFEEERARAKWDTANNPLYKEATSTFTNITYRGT
Chain of Integrin alpha-IIb/beta-3 (P08514 32-887 limits assumed): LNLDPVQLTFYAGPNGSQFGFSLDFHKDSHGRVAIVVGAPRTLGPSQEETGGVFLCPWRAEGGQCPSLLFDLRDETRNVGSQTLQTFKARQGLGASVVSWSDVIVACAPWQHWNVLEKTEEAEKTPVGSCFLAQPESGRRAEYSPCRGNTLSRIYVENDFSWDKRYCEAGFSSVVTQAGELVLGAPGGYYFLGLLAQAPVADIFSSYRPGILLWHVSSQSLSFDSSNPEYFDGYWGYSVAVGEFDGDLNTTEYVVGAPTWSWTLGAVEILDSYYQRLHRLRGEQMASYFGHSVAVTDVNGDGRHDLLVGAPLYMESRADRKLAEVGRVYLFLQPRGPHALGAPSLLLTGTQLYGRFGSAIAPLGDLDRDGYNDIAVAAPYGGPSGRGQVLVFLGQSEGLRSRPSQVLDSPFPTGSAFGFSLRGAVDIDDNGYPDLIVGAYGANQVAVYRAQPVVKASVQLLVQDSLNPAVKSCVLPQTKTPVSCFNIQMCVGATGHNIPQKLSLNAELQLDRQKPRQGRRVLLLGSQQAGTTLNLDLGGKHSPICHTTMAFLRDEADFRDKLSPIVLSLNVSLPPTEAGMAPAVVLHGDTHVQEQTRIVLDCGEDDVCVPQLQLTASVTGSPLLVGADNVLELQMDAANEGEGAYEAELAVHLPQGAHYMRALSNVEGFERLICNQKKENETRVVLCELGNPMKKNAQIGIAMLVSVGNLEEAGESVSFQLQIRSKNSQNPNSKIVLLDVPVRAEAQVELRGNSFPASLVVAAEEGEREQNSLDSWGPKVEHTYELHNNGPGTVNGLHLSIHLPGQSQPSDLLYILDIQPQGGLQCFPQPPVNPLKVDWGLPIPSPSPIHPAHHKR
Chain of Integrin alpha-IIb/beta-3 (P08514 891-1039 limits assumed): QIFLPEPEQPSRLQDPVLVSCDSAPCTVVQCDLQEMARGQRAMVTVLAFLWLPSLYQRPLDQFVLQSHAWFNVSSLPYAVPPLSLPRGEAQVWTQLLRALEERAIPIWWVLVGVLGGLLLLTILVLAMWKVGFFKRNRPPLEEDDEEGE

[2] = Oral bioavailability of compound in Sprague Dawley rats; assay type: ADME, organism-based; details: rat, in vivo

Chain of Integrin alpha-V/beta-3 (P05106 27-788 limits assumed): as the sequence (P05106 27-788 limits assumed) above
Chain of Integrin alpha-V/beta-3 (P06756 31-889 limits assumed): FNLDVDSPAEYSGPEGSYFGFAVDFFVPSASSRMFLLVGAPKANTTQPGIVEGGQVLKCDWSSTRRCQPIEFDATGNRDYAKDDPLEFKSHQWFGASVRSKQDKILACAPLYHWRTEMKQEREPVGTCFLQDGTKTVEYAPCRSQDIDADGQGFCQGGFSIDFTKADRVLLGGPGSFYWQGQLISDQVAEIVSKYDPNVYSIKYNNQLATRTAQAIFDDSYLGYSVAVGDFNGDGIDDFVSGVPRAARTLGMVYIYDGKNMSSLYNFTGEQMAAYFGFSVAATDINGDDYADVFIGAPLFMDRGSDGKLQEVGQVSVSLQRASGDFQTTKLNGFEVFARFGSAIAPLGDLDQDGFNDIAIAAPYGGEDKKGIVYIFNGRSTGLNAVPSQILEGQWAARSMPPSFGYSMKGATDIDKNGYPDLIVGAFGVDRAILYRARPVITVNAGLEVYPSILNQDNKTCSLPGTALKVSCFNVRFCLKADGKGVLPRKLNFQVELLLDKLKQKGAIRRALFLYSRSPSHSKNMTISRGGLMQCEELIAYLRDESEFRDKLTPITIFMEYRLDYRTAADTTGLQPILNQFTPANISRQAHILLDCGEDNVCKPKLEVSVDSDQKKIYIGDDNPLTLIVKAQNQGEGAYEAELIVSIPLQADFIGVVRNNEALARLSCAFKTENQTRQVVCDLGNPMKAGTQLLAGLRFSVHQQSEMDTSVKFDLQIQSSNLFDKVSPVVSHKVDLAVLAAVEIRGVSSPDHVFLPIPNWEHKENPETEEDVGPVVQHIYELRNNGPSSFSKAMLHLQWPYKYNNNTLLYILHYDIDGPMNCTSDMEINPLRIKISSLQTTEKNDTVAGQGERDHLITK
Chain of Integrin alpha-V/beta-3 (P06756 891-1048 limits assumed): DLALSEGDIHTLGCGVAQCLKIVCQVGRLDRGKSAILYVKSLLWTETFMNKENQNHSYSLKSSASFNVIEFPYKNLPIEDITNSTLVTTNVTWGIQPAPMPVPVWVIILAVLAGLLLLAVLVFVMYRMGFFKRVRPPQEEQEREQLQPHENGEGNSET

| Structure (SMILES) | IC50 (Integrin alpha-V/beta-3) [µM] | IC50 (Homo sapiens) [µM] | IC50 [1] [µM] | bioavailability [2] [%] |
| --- | --- | --- | --- | --- |
| N=C(N)c1ccc(N2CCC3(CCN(CCC(=O)O)CC3)CC2)cc1 | > 100 | 1.15 | 0.16 | – |
| N=C(N)c1ccc(C(=O)N2CCC3(CCN(C(=O)CCC(=O)O)CC3)CC2)cc1 | > 100 | 13.8 | – | – |
| O=C(O)CCCCCCC(=O)N1CCC2(CC1)CCN(c1ccncc1)CC2 | > 100 | 17.8 | – | – |
| N=C(N)c1ccc(C(=O)N2CCC3(CCN(C(=O)CCCC(=O)O)CC3)CC2)cc1 | > 100 | 10.3 | – | – |
| N=C(N)c1ccc(C(=O)N2CCC3(CCN(C(=O)CC(=O)O)CC3)CC2)cc1 | > 100 | 9.3 | 9.7 | – |
| N=C(N)c1ccc(C(=O)N2CCC3(CCN(C(=O)CCCCC(=O)O)CC3)CC2)cc1 | > 100 | 18.8 | > 100 | – |
| O=C(N[C@@H](CCC(=O)N1CCC2(CC1)CCN(c1ccncc1)CC2)C(=O)O)OCc1ccccc1 | > 100 | 4.58 | – | – |
| O=C(O)COC1CCN(C(=O)N2CCC3(CC2)CCN(c2ccncc2)CC3)CC1 | > 100 | 2.65 | 0.21 | – |
| O=C(O)CC(=O)N1CCC(C(=O)N2CCC3(CC2)CCN(c2ccncc2)CC3)CC1 | > 100 | 1.17 | 0.043 | – |

Second part, the compound after the results:

| IC50 (Integrin alpha-V/beta-3) [µM] | IC50 (Homo sapiens) [µM] | IC50 [1] [µM] | bioavailability [2] [%] | Structure (SMILES) |
| --- | --- | --- | --- | --- |
| > 100 | 0.722 | 0.004 | – | CCCCOC(=O)N[C@@H](CCC(=O)N1CCC2(CC1)CCN(c1ccncc1)CC2)C(=O)O |
| > 100 | 5.08 | – | – | O=C(O)CCCC(=O)N1CCC2(CC1)CCN(c1ccncc1)CC2 |
| > 100 | 0.078 | – | – | Cc1ccc(S(=O)(=O)N[C@@H](CCC(=O)N2CCC3(CC2)CCN(c2ccncc2)CC3)C(=O)O)cc1 |
| > 100 | 0.039 | – | – | Cc1noc(C)c1S(=O)(=O)N[C@@H](CNC(=O)N1CCC2(CC1)CCN(c1ccncc1)CC2)C(=O)O |
| > 100 | 0.768 | 0.023 | – | CCCCS(=O)(=O)N[C@@H](CCC(=O)N1CCC2(CC1)CCN(c1ccncc1)CC2)C(=O)O |
| > 100 | 4.54 | – | – | O=C(O)CCCCC(=O)N1CCC2(CC1)CCN(c1ccncc1)CC2 |
| > 100 | 0.021 | – | 7.3 | Cc1noc(C)c1S(=O)(=O)N[C@@H](CCC(=O)N1CCC2(CC1)CCN(c1ccncc1)CC2)C(=O)O |
| > 100 | 4.55 | 0.27 | – | O=C(O)CCCCCC(=O)N1CCC2(CC1)CCN(c1ccncc1)CC2 |
